For series [1], the system named is blood mononucleated cells from healthy donor inoculated with MS virion fraction. The format is cell-based, human.
The test system of series [2] is blood mononucleated cells from healthy donor.

Regarding `O=c1[nH]cnc2c1ncn2[C@H]1CC[C@@H](CO)O1` [DDI, dideoxyinosine], the “Vβ16 expansion of the lymphocytes (FACS analysis of T subpopulations)” value in series [1] was “an absence of Vβ16 expansion”. Turning to `Cc1cn([C@H]2C[C@H](N=[N+]=[N-])[C@@H](CO)O2)c(=O)[nH]c1=O` [AZT, azidodeoxythymidine], the “Vβ16 expansion of the lymphocytes (FACS analysis of T subpopulations)” value in series [1] was “an absence or an inhibition of Vβ16 expansion”. Moreover, the “cell mortality (toxicity tests, compound alone)” value in series [2] is on record as “no significant cell mortality”.

The values are drawn from patent publication US20060088820A1 (priority 1999, published 2006).
